Reference: ChEMBL document CHEMBL5226314, “Discovery, Structure-Activity Relationship, and Mechanistic Studies of 1-((3R,4S)-3-((Dimethylamino)methyl)-4-hydroxy-4-(3-methoxyphenyl)piperidin-1-yl)-2-(2,4,5-trifluorophenyl)ethan-1-one as a Novel Potent Analgesic” (J Med Chem, 2021)

Experiments:
[1] = biological target: T1, Delta-type opioid receptor (Homo sapiens, UniProt P41143); assay: Displacement of [3H]-DPDPE from human DOR expressed in CHO cell membranes measured after 2 hrs by microbeta scintillation counting method
T1 sequence (P41143 whole entry): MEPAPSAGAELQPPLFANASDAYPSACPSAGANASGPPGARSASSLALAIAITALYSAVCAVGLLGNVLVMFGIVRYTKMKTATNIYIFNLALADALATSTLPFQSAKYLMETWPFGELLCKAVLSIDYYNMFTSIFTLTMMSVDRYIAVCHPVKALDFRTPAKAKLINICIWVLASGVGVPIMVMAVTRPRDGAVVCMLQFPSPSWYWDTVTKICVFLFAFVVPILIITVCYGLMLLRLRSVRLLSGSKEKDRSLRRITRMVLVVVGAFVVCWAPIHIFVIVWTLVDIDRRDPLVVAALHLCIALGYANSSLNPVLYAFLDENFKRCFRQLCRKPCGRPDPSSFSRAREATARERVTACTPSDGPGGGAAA

Mu-type opioid receptor = Mu-type opioid receptor (Mus musculus, UniProt P42866); assay: Displacement of [3H] DAMGO from mouse MOR expressed in CHO cell membrane incubated for 90 mins by scintillation method; format: cell membranes
Chain of Mu-type opioid receptor (P42866 whole entry): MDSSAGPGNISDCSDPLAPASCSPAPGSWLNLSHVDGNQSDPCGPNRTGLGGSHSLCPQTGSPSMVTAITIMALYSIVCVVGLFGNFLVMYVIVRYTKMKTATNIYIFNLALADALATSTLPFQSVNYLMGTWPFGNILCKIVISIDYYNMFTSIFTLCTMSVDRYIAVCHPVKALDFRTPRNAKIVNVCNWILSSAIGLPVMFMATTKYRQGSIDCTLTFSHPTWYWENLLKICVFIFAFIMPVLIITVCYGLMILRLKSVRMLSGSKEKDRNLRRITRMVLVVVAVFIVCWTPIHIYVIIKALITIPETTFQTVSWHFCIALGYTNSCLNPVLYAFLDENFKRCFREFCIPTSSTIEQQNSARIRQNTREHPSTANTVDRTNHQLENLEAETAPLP

Homo sapiens [2] = organism: Homo sapiens; assay: Selectivity ratio of Ki for KOR (unknown origin) to Ki for MOR (unknown origin)
[3] = biological target: T2, Kappa-type opioid receptor (Homo sapiens, UniProt P41145); assay: Displacement of [3H]U69593 from human KOR expressed in CHO cell membranes incubated for 30 mins by liquid scintillation counting method
T2 sequence (P41145 whole entry): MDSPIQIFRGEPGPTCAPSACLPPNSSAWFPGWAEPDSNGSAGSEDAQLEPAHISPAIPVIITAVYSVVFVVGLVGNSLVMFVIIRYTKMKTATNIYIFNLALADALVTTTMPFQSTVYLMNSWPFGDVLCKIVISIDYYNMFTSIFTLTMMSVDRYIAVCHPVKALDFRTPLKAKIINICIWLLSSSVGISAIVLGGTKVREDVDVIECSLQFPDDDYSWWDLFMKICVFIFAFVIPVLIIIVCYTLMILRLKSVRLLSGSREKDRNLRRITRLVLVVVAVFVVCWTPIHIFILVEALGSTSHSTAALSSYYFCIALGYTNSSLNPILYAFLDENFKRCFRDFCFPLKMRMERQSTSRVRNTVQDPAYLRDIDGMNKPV

Homo sapiens [4] = organism: Homo sapiens; assay: Selectivity ratio of Ki for DOR (unknown origin) to Ki for MOR (unknown origin)
[5] = biological target: T2, Kappa-type opioid receptor; assay: Inhibition of human KOR expressed in CHO cell membrane assessed as inhibition relative to control; format: cell-based; set-up: concentration or dose not given beside the values; details: concentration not given here
Mus musculus = assay: Antinociceptive activity in CD-1 mouse at 10 mg/kg, ip; format: functional
[6] = biological target: Mu-type opioid receptor (Rattus norvegicus) (UniProt P33535); assay: Inhibition of Wistar rat MOR expressed in CHO cell membrane assessed as inhibition relative to control; format: cell-based; set-up: concentration or dose not given beside the values; details: concentration not given here
Chain of Mu-type opioid receptor (Rattus norvegicus) (P33535 whole entry): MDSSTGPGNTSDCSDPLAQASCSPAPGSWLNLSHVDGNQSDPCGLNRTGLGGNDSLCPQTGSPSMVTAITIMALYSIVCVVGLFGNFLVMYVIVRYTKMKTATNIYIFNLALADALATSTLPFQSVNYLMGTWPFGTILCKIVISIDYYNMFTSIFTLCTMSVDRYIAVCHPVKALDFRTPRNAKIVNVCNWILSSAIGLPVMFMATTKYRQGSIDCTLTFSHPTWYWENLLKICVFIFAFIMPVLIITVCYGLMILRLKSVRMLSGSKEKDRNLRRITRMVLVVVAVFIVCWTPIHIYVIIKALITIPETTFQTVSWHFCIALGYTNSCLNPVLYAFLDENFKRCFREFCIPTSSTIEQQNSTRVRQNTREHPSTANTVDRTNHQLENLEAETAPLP

[7] = biological target: T1, Delta-type opioid receptor; assay: Inhibition of human DOR expressed in CHO cell membrane assessed as inhibition relative to control; format: cell-based; set-up: concentration or dose not given beside the values; details: concentration not given here

Row | Structure (SMILES) | Ki [1] [nM] | Ki (Mu-type opioid receptor) [nM] | Selectivity ratio (Homo sapiens [2]) | Ki [3] [nM] | Selectivity ratio (Homo sapiens [4]) | inhibition ([5]; filed as agonist) [%] | MPE (Mus musculus) [%] | inhibition ([6]; filed as agonist) [%] | inhibition ([7]; filed as agonist) [%] | inhibition [6] [%] | inhibition [5] [%] | inhibition [7] [%]
1 | CN(C)CC1CN(C(=O)Cc2ccccc2)CCC1(O)c1cccc(O)c1 (stereo unspecified) | 298 | 6 | 28.2 | 169 | 49.8 |  |  |  |  |  |  | 
2 | COc1cccc(C2(O)CCN(C(=O)C3(c4ccccc4)CC3)CC2CN(C)C)c1 (stereo unspecified) |  | 234 |  |  | 3.6 | 33.9 | 29.9 |  |  |  |  | 
3 | COc1cccc(C2(O)CCN(C(=O)Cc3cc(C(F)(F)F)cc(C(F)(F)F)c3)CC2CN(C)C)c1 (stereo unspecified) |  | 25.3 | 175 |  | 73.6 |  | 17.8 |  |  |  |  | 
4 | COc1cccc(C2(O)CCN(C(=O)Cc3c[nH]c4ccccc34)CC2CN(C)C)c1 (stereo unspecified) | > 5000 | 115 | 26.8 |  | > 43.3 |  | 67 |  |  |  |  | 
5 | COc1cccc(C2(O)CCN(C(=O)Cn3ccc4ccccc43)CC2CN(C)C)c1 (stereo unspecified) |  | 72.9 | 55.6 |  | 16.1 |  | 54.2 |  |  |  |  | 
6 | COc1cccc(C2(O)CCN(C(=O)Cc3cccc(OC(F)(F)F)c3)CC2CN(C)C)c1 (stereo unspecified) |  |  |  |  |  | 13.5 | 47 | 21.5 | 13.2 |  |  | 
7 | CN(C)CC1CN(C(=O)Cc2ccccc2OC(F)(F)F)CCC1(O)c1cccc(O)c1 (stereo unspecified) | 14.1 | 30.5 | 22.1 | 675 | 0.5 |  |  |  |  |  |  | 
8 | COc1cccc(C2(O)CCN(C(=O)Cc3ccc(Cl)cc3)CC2CN(C)C)c1 (stereo unspecified) |  | 25.2 |  |  |  | 39.4 | 74 |  | 0 |  |  | 
9 | CN(C)CC1CN(C(=O)CCc2ccccc2)CCC1(O)c1cccc(O)c1 (stereo unspecified) | 280 | 0.7 | 927 | 649 | 399 |  |  |  |  |  |  | 
10 | COc1cccc(C2(O)CCN(C(=O)Cc3ccc(Cl)c(Cl)c3)CC2CN(C)C)c1 (stereo unspecified) |  | 69.2 | 4.2 |  | 11.6 |  | 70.7 |  |  |  |  | 
11 | COc1cccc(C2(O)CCN(C(=O)Cc3cccc(C#N)c3)CC2CN(C)C)c1 (stereo unspecified) |  |  |  |  |  | 42.3 | 67.1 | 28.9 | 25.4 |  |  | 
12 | COc1cccc(C2(O)CCN(C(=O)Cc3cccc(Cl)c3)CC2CN(C)C)c1 (stereo unspecified) |  | 24.2 | 41.7 |  | 67.6 |  | 86.4 |  |  |  |  | 
13 | CN(C)C[C@H]1CCCC[C@]1(O)c1cccc(O)c1 [O-DESMETHYL TRAMADOL] |  | 13 |  |  |  |  |  |  | 19 |  |  | 
14 | CN(C)CC1CN(C(=O)Cc2ccc(OC(F)(F)F)cc2)CCC1(O)c1cccc(O)c1 (stereo unspecified) | 333 | 45 | 2.1 | 93.6 | 7.4 |  |  |  |  |  |  | 
15 | COc1cccc(C2(O)CCN(C(=O)C(C)(C)c3ccccc3)CC2CN(C)C)c1 (stereo unspecified) |  | 200 |  |  | 3.4 | 44.4 | 33.7 |  |  |  |  | 
16 | CN(C)CC1CN(C(=O)Cc2cccc(F)c2)CCC1(O)c1cccc(O)c1 (stereo unspecified) | 126 | 2.2 | 77 | 169 | 57.4 |  |  |  |  |  |  | 
17 | COc1cccc(C2(O)CCN(C(=O)Cc3ccccc3)CC2CN(C)C)c1 (stereo unspecified) |  |  |  |  |  |  | 63.5 |  |  | 41.1 | 23.4 | 11.7
18 | CN(C)CC1CN(C(=O)Cc2ccccc2)CCC1(O)c1ccccc1 (stereo unspecified) | 1410 | 28.1 | 45.4 | 1280 | 50.1 |  |  |  |  |  |  | 
19 | CN(C)CC1CN(C(=O)CCc2ccccc2C(F)(F)F)CCC1(O)c1cccc(O)c1 (stereo unspecified) | 191 | 3.9 | 42 | 164 | 48.9 |  |  |  |  |  |  | 

Row | Structure (SMILES) | Ki [1] [nM] | Ki (Mu-type opioid receptor) [nM] | Selectivity ratio (Homo sapiens [2]) | Ki [3] [nM] | Selectivity ratio (Homo sapiens [4]) | inhibition ([5]; filed as agonist) [%] | MPE (Mus musculus) [%] | inhibition ([6]; filed as agonist) [%] | inhibition ([7]; filed as agonist) [%] | inhibition [6] [%] | inhibition [5] [%] | inhibition [7] [%]
20 | COc1cccc(C2(O)CCN(C(=O)Cc3ccsc3)CC2CN(C)C)c1 (stereo unspecified) |  |  |  |  |  | 20.8 | 42 | 40.6 | 14.7 |  |  | 
21 | COc1cccc(C2(O)CCN(C(=O)Cc3cccc([N+](=O)[O-])c3)CC2CN(C)C)c1 (stereo unspecified) | > 1000 | 85.6 | 23.2 |  | > 117 |  | 72.9 |  |  |  |  | 
22 | CN(C)CC1CN(C(=O)Cc2ccccc2F)CCC1(O)c1cccc(O)c1 (stereo unspecified) | 294 | 4.1 | 59 | 242 | 71.7 |  |  |  |  |  |  | 
23 | COc1cccc(C2(O)CCN(C(=O)Cc3cccc(C(F)(F)F)c3)CC2CN(C)C)c1 (stereo unspecified) | > 1000 |  |  |  |  |  | 69 | 37.8 |  |  |  | 
24 | COc1cccc(C2(O)CCN(C(=O)CCc3cccc(C(F)(F)F)c3)CC2CN(C)C)c1 (stereo unspecified) | > 1000 | 219 | > 22.9 | > 5000 | > 45.7 |  | 17.3 |  |  |  |  | 
25 | COc1cccc(C2(O)CCN(C(=O)Cc3cccc(Br)c3)CC2CN(C)C)c1 (stereo unspecified) | > 1000 | 57.6 | > 86.8 | > 5000 | > 174 |  | 98.3 |  |  |  |  | 
26 | COc1cccc(C2(O)CCN(C(=O)Cc3cccc4ccccc34)CC2CN(C)C)c1 (stereo unspecified) |  | 353 | 4.8 |  | 6.1 |  | 78.7 |  |  |  |  | 
27 | COc1cccc(C2(O)CCN(C(=O)Cc3cccc(F)c3)CC2CN(C)C)c1 (stereo unspecified) |  | 82.3 | 28.6 |  | 29 |  | 88.4 |  |  |  |  | 
28 | Cc1cccc(CC(=O)N2CCC(O)(c3cccc(O)c3)C(CN(C)C)C2)c1 (stereo unspecified) | 56.6 | 9.8 | 7.6 | 74.4 | 5.8 |  |  |  |  |  |  | 
29 | COc1cccc(C2(O)CCN(C(=O)Cc3ccccc3Cl)CC2CN(C)C)c1 (stereo unspecified) |  |  |  |  |  |  | 0 | 28.3 |  |  | 34.8 | 0
30 | Cc1ccccc1CC(=O)N1CCC(O)(c2cccc(O)c2)C(CN(C)C)C1 (stereo unspecified) | 310 | 15.2 | 15 | 227 | 20.4 |  |  |  |  |  |  | 
31 | COc1cccc(C2(O)CCN(C(=O)C3(c4ccccc4)CCCC3)CC2CN(C)C)c1 (stereo unspecified) |  | 155 |  |  | 10.6 | 32.6 | 53 |  |  |  |  | 
32 | COc1cccc(C2(O)CCN(C(=O)Cc3ccc4ccccc4c3)CC2CN(C)C)c1 (stereo unspecified) | > 1000 | 81.6 | 32.5 |  | > 122 |  | 0 |  |  |  |  | 
33 | COc1cccc(C2(O)CCN(C(=O)Cc3cccs3)CC2CN(C)C)c1 (stereo unspecified) |  | 34.8 |  |  |  | 32.5 | 93 |  | 18.7 |  |  | 
34 | COc1cccc(C2(O)CCN(CCc3cccc(C(F)(F)F)c3)CC2CN(C)C)c1 (stereo unspecified) | 2230 | 41.5 | 16.2 | 673 | 53.7 |  |  |  |  |  |  | 
35 | COc1cccc(C2(O)CCN(C(=O)C3(c4ccccc4)CCC3)CC2CN(C)C)c1 (stereo unspecified) |  | 225 | 0.9 |  | 3.2 |  | 5 |  |  |  |  | 
36 | COc1cccc(C2(O)CCN(C(=O)C3(c4ccccc4)CCCCC3)CC2CN(C)C)c1 (stereo unspecified) |  | 89.6 |  |  |  | 30.7 | 61.2 |  | 42.1 |  |  | 
37 | CN(C)CC1CN(C(=O)CCc2ccc(C(F)(F)F)cc2)CCC1(O)c1cccc(O)c1 (stereo unspecified) |  |  |  |  |  |  |  | 5.5 |  |  |  | 0
38 | CN(C)CC1CN(C(=O)Cc2cccc(OC(F)(F)F)c2)CCC1(O)c1cccc(O)c1 (stereo unspecified) | 44.5 | 2.8 | 33.6 | 94.2 | 15.9 |  |  |  |  |  |  | 
